Test results from ChEMBL document CHEMBL3045044, “Further derivatives of 4-benzoyl-1,5-diphenyl-1H-pyrazole-3-carboxylic acid and their antibacterial activities” (2007).
The source made the active and inactive calls.

Tests used:
Assay type in all cases: functional
Salmonella enteritidis = assay: Antibacterial activity against Salmonella enterica subsp. enterica serovar Enteritidis ATCC 1376 after overnight incubation by microdilution method
Bacillus subtilis = assay: Antibacterial activity against Bacillus subtilis ATCC 6633 after overnight incubation by microdilution method
Proteus vulgaris = assay: Antibacterial activity against Proteus vulgaris Kukem 1329 after overnight incubation by microdilution method
Klebsiella pneumoniae = assay: Antibacterial activity against Klebsiella pneumoniae A137 after overnight incubation by microdilution method
Pseudomonas aeruginosa = assay: Antibacterial activity against Pseudomonas aeruginosa ATCC 9027 after overnight incubation by microdilution method
Escherichia coli = assay: Antibacterial activity against Escherichia coli B3704 after overnight incubation by microdilution method
Enterococcus faecalis = assay: Antibacterial activity against Enterococcus faecalis ATCC 29122 after overnight incubation by microdilution method
Streptococcus pyogenes = assay: Antibacterial activity against Streptococcus pyogenes ATCC 176 after overnight incubation by microdilution method
Staphylococcus aureus = assay: Antibacterial activity against Staphylococcus aureus ATCC 29213 after overnight incubation by microdilution method
Xanthomonas campestris = assay: Antibacterial activity against Xanthomonas campestris A235 after overnight incubation by microdilution method

Measured: MIC

O=C(c1ccccc1)c1nn(-c2ccccc2)c(-c2ccccc2)c1C(=O)c1ccccc1
512 µg/mL: Proteus vulgaris | Xanthomonas campestris
inactive: all other assays above

N#Cc1nn(-c2ccccc2)c(-c2ccccc2)c1C(=O)c1ccccc1
512 µg/mL: Proteus vulgaris | Escherichia coli | Xanthomonas campestris
inactive: all other assays above

NS(=O)(=O)NC(=O)c1nn(-c2ccccc2)c(-c2ccccc2)c1C(=O)c1ccccc1
inactive: Bacillus subtilis | Enterococcus faecalis
32 µg/mL: all other assays above

O=c1onc(-c2ccccc2)c2c(-c3ccccc3)n(-c3ccccc3)nc12
512 µg/mL: Proteus vulgaris | Escherichia coli | Streptococcus pyogenes
256 µg/mL: Xanthomonas campestris
inactive: all other assays above

Nc1nnc(-c2ccccc2)c2c(-c3ccccc3)n(-c3ccccc3)nc12
512 µg/mL: Proteus vulgaris | Escherichia coli | Xanthomonas campestris
32 µg/mL: Pseudomonas aeruginosa
inactive: all other assays above

O=C(N[C@H](CO)[C@H](O)c1ccc([N+](=O)[O-])cc1)C(Cl)Cl [CHLORAMPHENICOL]
6 µg/mL: Escherichia coli | Staphylococcus aureus
12 µg/mL: Klebsiella pneumoniae | Enterococcus faecalis | Streptococcus pyogenes | Xanthomonas campestris
24 µg/mL: all other assays above
